We go through 15 molecules from patent US20250241926A1, “HETEROCYCLIC COMPOUNDS FOR USE IN THE TREATMENT OF CANCER” (ARTIOS PHARMA LIMITED, priority 2021, published 2025).

The target of the assay is T1, Human Polθ polymerase domain (aa1820-2590) (Homo sapiens, UniProt O75417).
T1 construct: Human Polθ polymerase domain (aa1820-2590) was expressed in E. Coli; made in house; host or cells: E. coli
T1 sequence (O75417 1820-2590): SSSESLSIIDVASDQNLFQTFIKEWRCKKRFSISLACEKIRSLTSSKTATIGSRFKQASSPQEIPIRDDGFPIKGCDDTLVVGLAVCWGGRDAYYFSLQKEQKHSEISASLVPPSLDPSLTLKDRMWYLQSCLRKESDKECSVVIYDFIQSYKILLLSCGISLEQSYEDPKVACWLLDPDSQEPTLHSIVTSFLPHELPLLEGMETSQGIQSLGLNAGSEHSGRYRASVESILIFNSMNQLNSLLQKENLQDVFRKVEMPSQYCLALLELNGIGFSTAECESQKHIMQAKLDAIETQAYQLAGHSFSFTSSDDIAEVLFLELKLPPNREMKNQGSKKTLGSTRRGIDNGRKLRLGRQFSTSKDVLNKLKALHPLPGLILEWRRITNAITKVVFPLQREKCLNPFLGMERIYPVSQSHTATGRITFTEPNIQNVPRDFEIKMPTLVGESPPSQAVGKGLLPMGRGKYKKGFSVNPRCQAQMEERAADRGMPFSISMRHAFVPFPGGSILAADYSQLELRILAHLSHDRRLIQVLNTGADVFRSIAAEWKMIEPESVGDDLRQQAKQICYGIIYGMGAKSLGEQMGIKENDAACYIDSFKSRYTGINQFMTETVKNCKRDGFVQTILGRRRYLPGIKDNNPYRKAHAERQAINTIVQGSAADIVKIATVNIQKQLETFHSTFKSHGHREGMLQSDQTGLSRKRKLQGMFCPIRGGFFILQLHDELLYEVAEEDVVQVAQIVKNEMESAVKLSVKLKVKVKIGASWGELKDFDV
The experiment in a line: Polθ Polymerase Domain Kinact/Kl Assay (PicoGreen). The following applies: covalent inhibitors, kobs vs [I] fit, 0.8 nM Polθ, 100 nM DNA substrate, read-out: Kinact/KI. Type of assay: biochemical. Summed up: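 E. coli-expressed enzyme (0.8 nM final) was run with 100 nM annealed DNA substrate and dNTPs in Tris pH 7.5 buffer (1% DMSO), with EDTA stops across a time course up to 60 min. Synthesised DNA was read by PicoGreen fluorescence. kobs per inhibitor concentration was fitted from the time courses, and Kinact and KI came from the kobs-vs-[I] plot.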
As to `C=CC(=O)N1CCN(CCCN2CC[C@H](Nc3nc(C)cc(C(F)(F)F)c3C#N)C(=O)N(C)c3ccc(F)cc32)CC1` [Example 38, (S)-2-((6-(3-(4-Acryloylpiperazin-1-yl)propyl)-8-fluoro-1-methyl-2-oxo-1,2,3,4,5,6-hexahydrobenzo[b][1,4]diazocin-3-yl)amino)-6-methyl-4-(trifluoromethyl)nicotinonitrile], the kinact/KI is 480000 M⁻¹ s⁻¹.
Regarding `Cc1cc(C(F)(F)F)c(C#N)c(N[C@H]2CCN(CCCN3CCN(C(=O)/C=C/CN(C)C)CC3)c3cc(F)ccc3N(C)C2=O)n1` [Example 39, (S,E)-2-((6-(3-(4-(4-(Dimethylamino)but-2-enoyl)piperazin-1-yl)propyl)-8-fluoro-1-methyl-2-oxo-1,2,3,4,5,6-hexahydrobenzo[b][1,4]diazocin-3-yl)amino)-6-methyl-4-(trifluoromethyl)nicotinonitrile], the kinact/KI came to 1e+06 M⁻¹ s⁻¹.
Next, `Cc1cc(C(F)(F)F)c(C#N)c(N[C@H]2CCN(CCCOC3CN(C(=O)/C=C/CN(C)C)C3)c3c(F)cccc3N(C)C2=O)n1` [Example 40, (S,E)-2-((6-(3-((1-(4-(Dimethylamino)but-2-enoyl)azetidin-3-yl)oxy)propyl)-7-fluoro-1-methyl-2-oxo-1,2,3,4,5,6-hexahydrobenzo[b][1,4]diazocin-3-yl)amino)-6-methyl-4-(trifluoromethyl)nicotinonitrile]: 3e+06 M⁻¹ s⁻¹.
With `Cc1cc(C(F)(F)F)c(C#N)c(N[C@H]2CCN(CCCOC3CN(C(=O)/C=C/CN(C)C)C3)c3ccccc3N(C)C2=O)n1` [Example 41, (S, E)-2-((6-(3-((1-(4-(Dimethylamino)but-2-enoyl)azetidin-3-yl)oxy)propyl)-1-methyl-2-oxo-1,2,3,4,5,6-hexahydrobenzo[b][1,4]diazocin-3-yl)amino)-6-methyl-4-(trifluoromethyl)nicotinonitrile] the figure was 1.4e+06 M⁻¹ s⁻¹; with `Cc1cc(C(F)(F)F)c(C#N)c(N[C@H]2CCN(CCCOC3CN(C(=O)/C=C/CN(C)C)C3)c3cc(F)ccc3N(C)C2=O)n1` [Example 42, (S,E)-2-((6-(3-((1-(4-(Dimethylamino)but-2-enoyl)azetidin-3-yl)oxy)propyl)-8-fluoro-1-methyl-2-oxo-1,2,3,4,5,6-hexahydrobenzo[b][1,4]diazocin-3-yl)amino)-6-methyl-4-(trifluoromethyl)nicotinonitrile], 820000 M⁻¹ s⁻¹.
As to `Cc1cc(C(F)(F)F)c(C#N)c(N[C@H]2CCN(CCCOC3CN(C(=O)/C=C/CN(C)C)C3)c3cc(F)cc(F)c3N(C)C2=O)n1` [Example 43, (S,E)-2-((6-(3-((1-(4-(Dimethylamino)but-2-enoyl)azetidin-3-yl)oxy)propyl)-8,10-difluoro-1-methyl-2-oxo-1,2,3,4,5,6-hexahydrobenzo[b][1,4]diazocin-3-yl)amino)-6-methyl-4-(trifluoromethyl)nicotinonitrile], the kinact/KI stood at 900000 M⁻¹ s⁻¹.
Next, `Cc1cc(C(F)(F)F)c(C#N)c(N[C@H]2CCN(CCCOC3CN(C(=O)/C=C/CN(C)C)C3)c3c(Cl)cccc3N(C)C2=O)n1` [Example 44, (S,E)-2-((7-Chloro-6-(3-((1-(4-(dimethylamino)but-2-enoyl)azetidin-3-yl)oxy)propyl)-1-methyl-2-oxo-1,2,3,4,5,6-hexahydrobenzo[b][1,4]diazocin-3-yl)amino)-6-methyl-4-(trifluoromethyl)nicotinonitrile]: 1.3e+06 M⁻¹ s⁻¹; `Cc1cc(C(F)(F)F)c(C#N)c(N[C@H]2CCN(CCOC3CCN(C(=O)/C=C/CN(C)C)CC3)c3c(F)cccc3N(C)C2=O)n1` [Example 49, (S,E)-2-((6-(2-((1-(4-(Dimethyl-amino)but-2-enoyl)piperidin-4-yl)oxy)ethyl)-7-fluoro-1-methyl-2-oxo-1,2,3,4,5,6-hexahydrobenzo [b][1,4]diazocin-3-yl)amino)-6-methyl-4-(tri-fluoromethyl)-nicotinonitrile]: 110000 M⁻¹ s⁻¹; `Cc1cc(C(F)(F)F)c(C#N)c(N[C@H]2CCN(CCOC3CN(C(=O)/C=C/CN(C)C)C3)c3ccccc3N(C)C2=O)n1` [Example 50, (S,E)-2-((6-(2-((1-(4-(Dimethylamino)but-2-enoyl)azetidin-3-yl)oxy)ethyl)-1-methyl-2-oxo-1,2,3,4,5,6-hexahydrobenzo[b][1,4]diazocin-3-yl)amino)-6-methyl-4-(trifluoromethyl)nicotinonitrile]: 110000 M⁻¹ s⁻¹.
Consider `C=CC(=O)N1CC(OCCN2CC[C@H](Nc3nc(C)cc(C(F)(F)F)c3C#N)C(=O)N(C)c3ccccc32)C1` [Example 51, (S)-2-((6-(2-((1-Acryloylazetidin-3-yl)oxy)ethyl)-1-methyl-2-oxo-1,2,3,4,5,6-hexahydrobenzo[b][1,4]diazocin-3-yl)amino)-6-methyl-4-(trifluoromethyl)nicotinonitrile], for which the kinact/KI was 70000 M⁻¹ s⁻¹.
Next, `C=CC(=O)N1CC2(CC(CN3CC[C@H](Nc4nc(C)cc(C(F)(F)F)c4C#N)C(=O)N(C)c4ccccc43)C2)C1` [Example 52, (S)-2-((6-((2-Acryloyl-2-azaspiro[3.3]heptan-6-yl)methyl)-1-methyl-2-oxo-1,2,3,4,5,6-hexahydrobenzo[b][1,4]diazocin-3-yl)amino)-6-methyl-4-(trifluoromethyl)nicotinonitrile]: 150000 M⁻¹ s⁻¹.
With `C=CC(=O)N1CC(OCCCN2CC[C@H](Nc3nc(C)cc(C(F)(F)F)c3C#N)C(=O)N(C)c3ccccc32)C1` [Example 53, (S)-2-((6-(3-((1-Acryloylazetidin-3-yl)oxy)propyl)-1-methyl-2-oxo-1,2,3,4,5,6-hexahydrobenzo[b][1,4]diazocin-3-yl)amino)-6-methyl-4-(trifluoromethyl)nicotinonitrile] the figure was 500000 M⁻¹ s⁻¹.
With `Cc1cc(C(F)(F)F)c(C#N)c(N[C@H]2CCN(CCCOC3CN(C(=O)/C=C/[C@@H]4CCCN4C)C3)c3c(F)cccc3N(C)C2=O)n1` [Example 54, 2-(((S)-7-Fluoro-1-methyl-6-(3-((1-((E)-3-((S)-1-methylpyrrolidin-2-yl)acryloyl)azetidin-3-yl)oxy)propyl)-2-oxo-1,2,3,4,5,6-hexahydrobenzo[b][1,4]diazocin-3-yl)amino)-6-methyl-4-(trifluoromethyl)nicotinonitrile] the figure was 700000 M⁻¹ s⁻¹.
For the molecule `Cc1cc(C(F)(F)F)c(C#N)c(N[C@H]2CCN(CCCOC3CN(C(=O)/C=C/[C@H]4CCCN4C)C3)c3c(F)cccc3N(C)C2=O)n1` [Example 55, 2-(((S)-7-Fluoro-1-methyl-6-(3-((1-((E)-3-((R)-1-methylpyrrolidin-2-yl)acryloyl)azetidin-3-yl)oxy)propyl)-2-oxo-1,2,3,4,5,6-hexahydrobenzo[b][1,4]diazocin-3-yl)amino)-6-methyl-4-(trifluoromethyl)nicotinonitrile], the kinact/KI amounted to 810000 M⁻¹ s⁻¹.
With `COCCN(C)C/C=C/C(=O)N1CC(OCCCN2CC[C@H](Nc3nc(C)cc(C(F)(F)F)c3C#N)C(=O)N(C)c3cccc(F)c32)C1` [Example 56, (S,E)-2-((7-Fluoro-6-(3-((1-(4-((2-methoxyethyl)(methyl)amino)but-2-enoyl)azetidin-3-yl)oxy)propyl)-1-methyl-2-oxo-1,2,3,4,5,6-hexahydrobenzo[b][1,4]diazocin-3-yl)amino)-6-methyl-4-(trifluoromethyl)nicotinonitrile] the figure was 1.1e+07 M⁻¹ s⁻¹.
